Common to all, as to settings: pH 7.2; 20 µM decylubiquinone, 100 µM DCPIP, 0.33% succinate, 1 µM antimycin, 4% DMSO
In assay [1] the target is T1, C. elegans SDH (mitochondrial complex II) (Caenorhabditis elegans, UniProt O62215+P41956+Q09545).
T1 construct: gene sdhb-1; native complex II in mitochondrial preparation; wild-type strain N2 named for cultures, not explicitly for the mitochondria; with Succinate dehydrogenase [ubiquinone] flavoprotein subunit, mitochondrial
Put plainly: succinate:ubiquinone reductase assay, DCPIP reduction at […] nm, mitochondrial protein. The class given is biochemical.

The target in assay [2] is T2, SDH (mitochondrial complex II) of rat (Rattus norvegicus, UniProt P21913+Q641Z9+Q6PCT8).
T2 construct: gene Sdhb
T2 sequence (P21913 31-282): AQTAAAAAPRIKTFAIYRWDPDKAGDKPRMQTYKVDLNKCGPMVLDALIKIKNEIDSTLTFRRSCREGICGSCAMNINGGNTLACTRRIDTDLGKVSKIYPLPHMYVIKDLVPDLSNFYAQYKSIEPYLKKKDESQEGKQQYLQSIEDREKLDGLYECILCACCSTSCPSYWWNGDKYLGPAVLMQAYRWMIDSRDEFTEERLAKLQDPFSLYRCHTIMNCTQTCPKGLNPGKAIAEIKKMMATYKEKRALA
T2 sequence (Q641Z9 30-169): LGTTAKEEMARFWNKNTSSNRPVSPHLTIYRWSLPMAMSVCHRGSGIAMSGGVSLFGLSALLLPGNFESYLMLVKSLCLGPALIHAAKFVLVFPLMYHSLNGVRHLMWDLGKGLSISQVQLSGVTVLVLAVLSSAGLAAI
T2 sequence (Q6PCT8 57-159): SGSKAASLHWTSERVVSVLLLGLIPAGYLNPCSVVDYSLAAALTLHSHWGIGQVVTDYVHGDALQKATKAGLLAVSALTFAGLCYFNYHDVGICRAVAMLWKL
T2 sequence (Q920L2 35-656 partner): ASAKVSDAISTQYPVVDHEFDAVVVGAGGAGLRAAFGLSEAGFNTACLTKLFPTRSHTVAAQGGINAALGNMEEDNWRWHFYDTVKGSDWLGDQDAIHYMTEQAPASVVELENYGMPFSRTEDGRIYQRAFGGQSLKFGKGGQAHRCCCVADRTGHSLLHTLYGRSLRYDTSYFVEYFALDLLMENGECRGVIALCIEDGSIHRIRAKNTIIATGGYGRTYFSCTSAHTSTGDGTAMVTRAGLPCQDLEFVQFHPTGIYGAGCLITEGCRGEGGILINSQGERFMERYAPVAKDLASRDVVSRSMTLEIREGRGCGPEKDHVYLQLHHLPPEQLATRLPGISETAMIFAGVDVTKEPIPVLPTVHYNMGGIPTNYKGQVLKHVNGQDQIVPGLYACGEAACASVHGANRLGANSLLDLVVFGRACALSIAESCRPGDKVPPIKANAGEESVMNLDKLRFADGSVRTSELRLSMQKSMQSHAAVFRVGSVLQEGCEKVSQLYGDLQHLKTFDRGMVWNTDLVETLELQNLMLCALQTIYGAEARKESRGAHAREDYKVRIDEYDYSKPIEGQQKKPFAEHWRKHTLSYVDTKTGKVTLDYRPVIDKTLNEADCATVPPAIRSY

For assay [3], the target named is T3, SDH (mitochondrial complex II) of earthworm.
T3 construct: gene SDHB; native complex II in mitochondrial preparation from earthworm; with Succinate dehydrogenase [ubiquinone] flavoprotein subunit, mitochondrial
The experiment in a line: succinate:ubiquinone reductase assay, DCPIP reduction at […] nm, mitochondrial protein. The class given is biochemical, Eisenia andrei.

Each structure is given as a SMILES string.

T1 sequence (Q09545 36-298): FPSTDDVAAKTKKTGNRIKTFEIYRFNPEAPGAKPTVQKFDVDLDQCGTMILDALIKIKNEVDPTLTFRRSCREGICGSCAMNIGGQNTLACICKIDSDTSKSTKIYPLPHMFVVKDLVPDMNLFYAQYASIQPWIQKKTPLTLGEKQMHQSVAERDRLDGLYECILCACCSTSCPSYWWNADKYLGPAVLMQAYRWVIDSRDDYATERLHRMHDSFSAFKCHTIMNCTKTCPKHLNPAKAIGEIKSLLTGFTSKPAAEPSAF
T1 sequence (P41956 31-182): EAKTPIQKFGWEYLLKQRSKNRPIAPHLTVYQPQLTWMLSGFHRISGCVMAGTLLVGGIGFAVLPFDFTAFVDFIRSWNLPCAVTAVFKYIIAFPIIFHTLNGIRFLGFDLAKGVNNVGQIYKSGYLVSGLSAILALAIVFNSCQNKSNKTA
T1 sequence (O62215 32-145): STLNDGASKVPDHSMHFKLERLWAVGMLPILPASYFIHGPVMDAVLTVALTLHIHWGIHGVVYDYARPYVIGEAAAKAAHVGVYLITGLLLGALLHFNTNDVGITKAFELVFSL
T1 sequence (Q09508 32-646 partner): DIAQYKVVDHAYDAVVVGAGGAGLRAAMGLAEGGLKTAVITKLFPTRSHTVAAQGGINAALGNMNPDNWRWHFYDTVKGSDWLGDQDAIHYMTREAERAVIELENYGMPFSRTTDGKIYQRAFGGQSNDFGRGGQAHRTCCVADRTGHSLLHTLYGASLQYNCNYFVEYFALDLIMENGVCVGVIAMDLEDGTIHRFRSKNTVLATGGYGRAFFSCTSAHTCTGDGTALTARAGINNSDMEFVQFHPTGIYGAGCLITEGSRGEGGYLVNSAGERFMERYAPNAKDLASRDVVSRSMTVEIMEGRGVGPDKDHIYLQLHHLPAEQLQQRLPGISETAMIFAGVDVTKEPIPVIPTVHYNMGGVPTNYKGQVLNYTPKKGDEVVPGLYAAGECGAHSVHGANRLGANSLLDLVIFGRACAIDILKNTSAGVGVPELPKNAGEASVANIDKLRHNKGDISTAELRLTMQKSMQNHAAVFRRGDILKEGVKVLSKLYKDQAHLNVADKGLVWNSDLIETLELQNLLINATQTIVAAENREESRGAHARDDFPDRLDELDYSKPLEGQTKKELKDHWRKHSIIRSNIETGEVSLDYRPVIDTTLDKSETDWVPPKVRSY

As usually defined, the pIC50 is −log10 of the IC50, conventionally taken in molar units. Take `COc1[nH]c(=O)c(C(=O)[C@@H](C)C[C@H](C)[C@@H](Cl)CCl)c(O)c1OC` [Atpenin A5]: the figures for the pIC50 in assay [1], in assay [2] and in assay [3] were 7.7, 8.2 and 8.1, respectively.
For `O=C(NCCc1ncc(C(F)(F)F)cc1Cl)c1ccccc1C(F)(F)F` [fluopyram], the pIC50 in assay [1] was 8.5.
For `CC(C)Oc1cccc(NC(=O)c2ccccc2C(F)(F)F)c1` [flutolanil], the values for the pIC50 in assay [1] and in assay [3] were 6.5 and 6.0, respectively.

The record behind these values is article PMC9279378, “Mode of action of fluopyram in plant-parasitic nematodes” (Scientific Reports, 2022).
